Experimental data: publication PMC9861162 (Pharmaceuticals, 2022)
“Also recorded” adds a separate entry of the source.

Assays:
CYP2A6 = target: T1, CYP2A6 (Homo sapiens, UniProt P11509); test: in vitro CYP450 metabolism inhibition assay in human liver microsomes, CYP2A6 (coumarin); settings: microsomes
T1 sequence (P11509 1-494): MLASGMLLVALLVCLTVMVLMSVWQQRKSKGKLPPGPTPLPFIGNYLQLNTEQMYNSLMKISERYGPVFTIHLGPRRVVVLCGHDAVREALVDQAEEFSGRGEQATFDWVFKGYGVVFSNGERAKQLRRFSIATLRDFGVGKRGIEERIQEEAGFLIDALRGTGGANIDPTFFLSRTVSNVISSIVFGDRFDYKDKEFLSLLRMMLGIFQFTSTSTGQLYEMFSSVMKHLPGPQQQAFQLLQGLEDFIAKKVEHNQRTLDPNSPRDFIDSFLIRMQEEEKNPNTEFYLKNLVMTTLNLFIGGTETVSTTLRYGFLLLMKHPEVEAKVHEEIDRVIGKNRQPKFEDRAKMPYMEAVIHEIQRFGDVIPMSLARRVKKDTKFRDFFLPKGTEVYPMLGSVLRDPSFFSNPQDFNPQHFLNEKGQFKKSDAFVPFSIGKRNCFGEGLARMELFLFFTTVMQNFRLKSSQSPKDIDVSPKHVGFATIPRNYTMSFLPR
Procedure: The incubation conditions employed for each CYP450 isoform were performed, as previously described.
Buffer solution (0.1 mol/L aqueous phosphate buffer, pH 7.4, 69 µL), NADPH-regenerating solutions (10 µL solution A: 26 mmol/L NADP+, 66 mmol/L glucose-6-phosphate, and 66 mmol/L MgCl2; 2 µL solution B: 40 U/mL glucose-6-phosphate dehydrogenase in 5 mmol/L sodium citrate), and deionized water (69 µL) were added, in a total volume of 150 μL. The tubes were vortex-mixed and preincubated with continuous gentle shaking for 5 min at 37 °C in a shaking water bath. Reactions were initiated by the addition of 50 µL of HLM solution in the tubes which were gently mixed by hand and incubated with continuous gentle shaking at 37 °C. Aliquots of 200 µL ice-cold solvent (Table 1) containing IS (1 µg/mL) were added. […] The supernatants were transferred to glass autosampler vials and submitted to LC-MS/MS analysis (5 µL injection volume) to monitor the substrate metabolite formation.

CYP2C19 = CYP2C19 (Homo sapiens, UniProt P33261); test: clinical DDI prediction, static (IVIVE) and dynamic (PBPK) models, CYP2C19
CYP2C19, sequence (P33261 whole entry): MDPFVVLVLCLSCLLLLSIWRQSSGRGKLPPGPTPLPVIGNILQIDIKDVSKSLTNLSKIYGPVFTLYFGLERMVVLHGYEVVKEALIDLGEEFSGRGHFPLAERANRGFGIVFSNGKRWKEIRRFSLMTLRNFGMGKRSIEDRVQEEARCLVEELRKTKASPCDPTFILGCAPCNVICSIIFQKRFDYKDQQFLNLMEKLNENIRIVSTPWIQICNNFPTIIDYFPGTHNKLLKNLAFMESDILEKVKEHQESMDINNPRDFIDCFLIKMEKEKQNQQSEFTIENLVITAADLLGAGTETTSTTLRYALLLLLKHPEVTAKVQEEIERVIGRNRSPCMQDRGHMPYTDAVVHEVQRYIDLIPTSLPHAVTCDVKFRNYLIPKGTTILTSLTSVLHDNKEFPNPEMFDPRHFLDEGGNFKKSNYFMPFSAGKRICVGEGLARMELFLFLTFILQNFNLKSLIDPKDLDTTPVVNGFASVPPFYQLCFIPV
Excerpt: (§1) The Ki input values were estimated from the ratio IC50/2. Since the IC50 experiments were designed considering the substrate concentration equal to Km, the simplification of Ki as IC50/2 was considered for a competitive inhibition reaction.
(§2) The following Equation (4) was considered for the potential DDI evaluation:(4) AUCR=AUCwith inhibitor/AUCwithout inhibitor where AUCR is the area under the curve ratio, AUCwith inhibitor is AUC in the presence of the inhibitor, and AUCwithout inhibitor is AUC in the absence of the inhibitor.

CYP3A4 = test: clinical DDI prediction, static (IVIVE) and dynamic (PBPK) models, CYP3A4; settings: for FDA Classification as CYP inhibitor: higher of static and dynamic AUCR; for R1: reversible inhibition
Excerpt: as §1, §2

[1] = dapaconazole PBPK model in dogs (Simcyp); design: species or system dog
Procedure: A PBPK model was first developed in dogs using a hybrid PBPK approach employing the in vivo clearance reported in dogs. The input parameters are described in Table 4.
Then, the full PBPK model, which used the method 2 (Rodgers and Rowland [15]) to predict the volume of distribution at steady-state conditions (Vss) was evaluated.
All modeling was conducted using Simcyp modeling software (v. 20, Certara, Princeton, NJ, US). […] All of the input parameters are described in Table 4.
The Simcyp minimal PBPK, which considers all organs other than the intestine and liver as a single compartment, plus a SAC distribution model were selected. […] The Vss was predicted using Rodgers and Rowland’s equations (method 2). A Kp scalar was determined to best describe the observed dog data using a sensitivity analysis approach. The final values of Vsac, kin, and kout were determined from the parameter estimation approach selecting the best values to describe the shape of the observed PK profile. For the elimination model development, the in vivo systemic clearance values reported in dogs were employed in a middle-out approach. […] The PBPK model was evaluated through a visual comparison of observed in vivo plasma concentration–time profiles with the concentrations predicted in dogs, and the PK parameters within observed/predicted ratios between 0.5-fold to 2-fold were considered acceptable.

[2] = design: method as in Drugbank; settings: PBPK input; ref Drugbank; cited from earlier work
[3] = design: method as in Antunes et al. [14]; settings: ref Antunes et al. [14], cited from earlier work
interdigital tinea pedis = settings: ref [3]; cited from earlier work
pityriasis versicolor = settings: ref [5]; cited from earlier work
[4] = all trials; ref [3],[4],[5]; cited from earlier work

## FC(F)(F)c1ccc(COC(Cn2ccnc2)c2ccc(Cl)cc2Cl)cc1 (stereo not shown) [dapaconazole, Dapaconazole]
CYP2A6
  IC50: 20.7 µM
CYP2C19
  DDI potential from Ki and R1 values: high potential
CYP2C19; reversible inhibition, substrate S-mephenytoin
  R1: 15.14
CYP3A4; CYP3A
  DDI potential from Ki and R1 values: high potential
CYP3A4; CYP3A4, substrate midazolam
  FDA Classification as CYP inhibitor: Strong (AUCR ≥ 5: strong inhibitor)
CYP3A4; CYP3A4, substrate nifedipine
  FDA Classification as CYP inhibitor: Strong (AUCR ≥ 5: strong inhibitor)
CYP3A4; CYP3A overall
  FDA Classification as CYP inhibitor: strong inhibitor; also recorded: moderate to strong inhibition
CYP3A4; substrate midazolam
  R1: 98.26
CYP3A4; substrate nifedipine
  R1: 25.70
[1]; intravenous 1 mg/kg
  AUC0-t Observed/predicted ratio: 0.83
  CL Observed/predicted ratio: 1.29
  Cmax Observed/predicted ratio: 0.92
  t1/2 Terminal Observed/predicted ratio: 1.08
[1]; intravenous 2 mg/kg
  AUC0-t Observed/predicted ratio: 1.27
  CL Observed/predicted ratio: 1.09
  Cmax Observed/predicted ratio: 1.78
  t1/2 Terminal Observed/predicted ratio: 1.29
[1]; intravenous 20 mg/kg
  AUC0-t Observed/predicted ratio: 0.65
  CL Observed/predicted ratio: 1.54
  Cmax Observed/predicted ratio: 0.58
  t1/2 Terminal Observed/predicted ratio: 1.04
[2]
  log P: 5.63
  pKa (monoprotic base): 6.77
[3]; human liver microsome incubation
  fu,inc: 0.94
[3]; human liver microsomes
  CL int. mic.: 118.5 µL/min/mg
Interdigital tinea pedis
  efficacy compared with ketoconazole: noninferior efficacy
Pityriasis versicolor
  efficacy compared with ketoconazole: noninferior efficacy
[4]
  safety profile: good safety profile
